Laboratory results: patent US7579016B2, “Methods for repelling arthropods using isolongifolenone analogs” (The United States of America as represented by the …, priority 2007, dated 2009)

Legend:
[1] = tested on: Amblyomma americanum nymphs; assay: fingertip tick repellency bioassay (treated cloth strip around finger); assay type: in vivo; conditions: A. americanum nymphs; 155 nmol/cm^2 cloth; 10 min after release on finger
From the text: (§1) Tick Bioassay: Blacklegged tick (Ixodes scapularis) nymphs were reared from larvae obtained from the laboratory colony at Oklahoma State University, Stillwater, Okla., and fed on rats (Beltsville Area Animal Care and Use Committee Protocol #05-0122) at the U.S. Department of Agriculture (USDA), Agricultural Research Service (ARS), Beltsville Agricultural Research Center, Beltsville, Md. Lone star tick (Amblyomma americanum) nymphs were obtained from a colony at the USDA, ARS, Knipling-Bushland U.S. Livestock Insects Research Laboratory, Kerrville, Tex. Both species of ticks were maintained at 24° C.; ˜97% RH and 16:8 h LD until testing.
(§2) The fingertip bioassay used by Schreck et al. (Schreck, C. E., et al., J. Am. Mosq. Control Assoc., 11: 136-140 (1995)) was modified (Carroll, J. F., et al., Exp. Appl. Acarol., 41: 215-224 (2007); Carroll, J. F., et al., Med. Vet. Entomol., 19:101-106 (2005)) by applying treatments to the outer layer of a strip of cloth (organdy) later doubly wrapped around the middle phalanx of an index finger. A 7×7 […] strip of organdy cloth (G Street Fabrics, Rockville, Md.) was cut in the shape of a hockey stick (9 cm long section, 4.5 cm short section, 4-4.5 cm wide) so that when the cloth was wrapped twice around the middle phalanx of the index finger it completely covered the area between the deepest creases of the distal and middle joints of the finger of a volunteer subject. The cloth extended 5-6 mm proximally beyond the deepest crease of the middles joint and overlapped 1-3 mm. With the strip of cloth in place, the boundaries of the area to receive the repellent treatment area (between the deepest creases of the distal and middle joints) were marked on the cloth with a lead pencil. This cloth was used as a template for tracing the boundaries on other cloths.
(§3) Stoichiometrically equivalent stock 95% ethanol solutions of the compounds were prepared: 50 nmol Deet/μL and 50 nmol isolongifolenone or isolongifolenone analog/μL for use in all bioassays. The volumes of the respective solutions used to generate 155 nmole repellent doses/cm^2 cloth were based on the dimensions of the middle phalanx of the left index finger of a volunteer subject. The volume of the treated solutions required to give the desired nmoles/cm^2 cloth dosages was calculated from the average of the circumferences of the two finger joints multiplied by the distance between the deepest crease of each joint.
(§4) A repellent solution (52 μL) or ethanol (control) of the same volume was applied to the designated treatment area on the cloth and allowed to dry. As with Schreck et al. (1995), it was necessary to screen I. scapularis nymphs for active individuals. While the treated cloth dried, I. scapularis nymphs were transferred by forceps from a holding vial to a finger. Ten ticks that crawled ≧5 mm were sequestered in a Petri dish that had been glued inside a larger Petri dish with water added to the space between their sides to form a moat. After the cloth dried (10-12 min), it was wrapped twice around the index finger. To keep the cloth wrapped around the finger, three small dabs of beeswax were smeared on the upper surface of the inner layer of cloth at the edge of the overlap and pressure applied for 10 s. Using forceps, the 10 selected ticks were placed on the tip of the horizontally held finger between the nail and the edge of the cloth. When the tenth tick was placed on the finger, the finger was slowly tipped vertically with the tip downward. The locations of the ticks were recorded at 1, 3, 5, 10 and 15 min after their release on the finger. […] For both species, the finger was held over moated Petri dishes while ≧1 tick was on it. During bioassays temperatures ranged from 23°-26° C. and 10-56% RH. The repellent data were compared by paired samples t-test (SPSS 10.0 for Windows for significance at α=0.05 level, George, D., and P. Mallery, SPSS for Windows step by step: A simple guide and reference, 4th ed., 2002, Allyn & Bacon, Boston, Mass.). […]

Ixodes scapularis nymphs = assay: as above; assay type: in vivo; conditions: for I. scapularis nymphs repelled: FIG. 4
From the text: as §1, §2, §3, §4

Aedes aegypti = assay: in vitro K&D module mosquito biting-deterrent bioassay; assay type: in vivo; conditions: for proportion of mosquitoes not biting (biting deterrence): 3-minute exposure, 200 females, FIG. 2; for proportion of mosquitoes deterred, dose-response assay: FIG. 3
From the text: (§5) Mosquito Bioassay: Yellowfever mosquito, Aedes aegypti (red eye Liverpool strain) and malarial vector mosquito, Anopheles stephensi used in the study were from colonies maintained at the Walter Reed Army Institute of Research, Department of Entomology, Silver Spring, Md. The mosquitoes were reared using the procedure of Gerberg et al. (Gerberg, E. J., et al., Manual for mosquito rearing and experimental techniques, 1994, AMCA Inc., Lake Charles, La.). Larvae were fed ground tropical fish flakes (Tetramin Tropical Fish Flakes, Tetra Sales, Blacksburg, Va., wwv.tetra-fish.com). Colonies were maintained in a photoperiod of 12:12 h (L:D with lights on at 0600 h) at 27° C. and 80% RH. Adult mosquitoes were supplied with cotton pads moistened with 10% aqueous sucrose solution.
(§6) The comparative mosquito biting-deterrent activity of isolongifolenone and Deet was evaluated using the mosquitoes A. degypti and An. stephensi. Isolongifolenone was synthesized as described earlier. The well known and widely used synthetic repellent chemical Deet (McCabe, E. T., et al., J. Org. Chem., 19: 493-498 (1954)) was purchased from Morflex, Inc., Greensboro, N.C. Deet is often considered to be the best mosquito repellent ever developed (Elston, D. M., J. Am. Acad. Dermatol., 36: 644-645 (1998)) and is used as a gold standard to which new candidate repellents are compared. A comparative bioassay of the two compounds was conducted by using the in vitro K&D module bioassay system (Klun et al., 2005). The K&D in vitro assay system consists of three components: (1) A Plexiglas™ 29.7 cm×7.1 cm K&D module composed of six adjacent cells each designed to hold mosquitoes and each having a rectangular 3×4 cm floor hole that opened and closed by a sliding door. (2) A Plexiglas™ six-well 29.7 cm×7.1 cm water water-bath warmed (38° C.) reservoir with six 3×4 cm wells designed to match the sliding-door openings of the K&D module base and to contain 6 mL warmed human red blood cells. The wells were covered with a collagen membrane (the blood cell-membrane unit simulated a human host for mosquito feeding). (3) A 29.7×7.1 cm×0.4 cm Teflon® separator having six rectangular openings like the K&D module. In the study, test compounds in 95% ethanol solution were applied to 3×4 cm cloth areas marked with ink pen on a 29.7-cm×7.1 cm strip of organdy cloth. We routinely applied ethanol solutions (115 μL) 0.5 cm outside of the 3×4 marked cloth areas to ensure that mosquitoes were never exposed to any area of untreated cloth. […] The Teflon® separator was placed over the treated cloth. The function of the separator was to prevent direct contact of the K&D module with chemically treated cloth. A bioassay replicate consisted of three treatments: isolongifolenone, Deet, and 95% ethanol treated cloth as control. We used two replicates with treatments randomly positioned over the six-cells of a reservoir.
(§7) The mosquito bioassays were conducted With the in vitro K&D module systems positioned in a Purair ductless chemical fume hood (Air Science USA, LLC, Fort Myers, Fla.) from 1300-1600 h over days at 24°-26° C. and 24-51%, RH in ambient laboratory light. Mated nulliparous A. aegypti and A. stephensi (5-15 d old) were tested, and they had no water 24 h before testing. Mosquitoes were loaded into each of six adjacent K&D module cells and promptly after loading they were exposed to 2 replicates of the three treatments on the organdy cloth. Routinely, a six-celled K&D module containing five mosquitoes/cell was positioned on the Teflon® separator over air-dried cloth treatments covering the blood-membrane wells, and trap doors of the K&D modules were opened to expose-the treatments to the sets of mosquitoes. After a 3-minute exposure, the number of mosquitoes biting through cloth treatments in each cell was recorded and mosquitoes were prodded back into the cells. […]

Anopheles stephensi = assay: as above; assay type: in vivo; conditions: 25 nmol/cm^2 cloth; 3-minute exposure; 200 females; FIG. 2
From the text: as §5, §6, §7

mosquito = conditions: 25 nmol compound/cm^2, applied to human skin or cloth; cited from earlier work

Row | SMILES | Proportion Repelled [1] | I. scapularis nymphs repelled (Ixodes scapularis nymphs; 19.5 nmole/cm^2 cloth) [%] | I. scapularis nymphs repelled (Ixodes scapularis nymphs; 39 nmole/cm^2 cloth) [%] | I. scapularis nymphs repelled (Ixodes scapularis nymphs; 78 nmole/cm^2 cloth) [%] | Proportion Repelled (Ixodes scapularis nymphs; I. scapularis nymphs, 155 nmol/cm^2 cloth, 10 min after release on finger) | proportion of mosquitoes not biting (biting deterrence) (Aedes aegypti; 25 nmol/cm^2 cloth) | proportion of mosquitoes deterred, dose-response assay (Aedes aegypti; 25 nmole compound/cm^2 cloth) | proportion of mosquitoes deterred, dose-response assay (Aedes aegypti; 36 nmole compound/cm^2 cloth) | proportion of mosquitoes not biting (biting deterrence) (Anopheles stephensi) | proportion of mosquitoes not biting (analog comparison) (Aedes aegypti; 25 nmol/cm^2 cloth, 100 mosquitoes per compound, FIG. 6) | suppression of mosquito biting compared to controls (mosquito)
1 | CC1(C)C2=CC(=O)CC(C)(C)[C@]23CC[C@H]1C3 [Isolongifolenone, (−)-isolongifolenone] | 0.725 | 35 | 65 | 100 | 1.0 | more effectively than Deet | significantly greater than the proportions deterred by Deet | significantly greater than the proportions deterred by Deet | more effectively than Deet |  | 
2 | CCN(CC)C(=O)c1cccc(C)c1 [Deet, N,N-Diethyltoluamide, reference compound] |  | 15 | 55 | 100 |  | significantly greater |  |  | significantly greater | significantly greater | ca. 80%
